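48-hour exposure; five concentrations; linearly interpolated endpoints. At the GI50, growth is halved.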 Active and inactive are the calls of the source. Rule as the data show it: active = GI50 up to about 1.1 µM and inactive = higher.
Assays:
Assay in all cases: NCI tumour cell line growth inhibition, 48 h
NCI-H522 = system: NCI-H522
U-251 = system: U-251
K562 = system: K562
LOX IMVI = system: LOX IMVI
CCRF-CEM = system: CCRF-CEM
Malme-3M = system: Malme-3M
SK-OV-3 = system: SK-OV-3
NCI-H226 = system: NCI-H226
SNB-75 = system: SNB-75
HCC 2998 = system: HCC 2998
SN12C = system: SN12C
786-0 = system: 786-0
SK-MEL-28 = system: SK-MEL-28
UACC-257 = system: UACC-257
SNB-19 = system: SNB-19
HOP-92 = system: HOP-92
IGROV-1 = system: IGROV-1
RPMI-8226 = system: RPMI-8226

| SMILES | GI50 (NCI-H522) | GI50 (U-251) | GI50 (K562) | GI50 (LOX IMVI) | GI50 (CCRF-CEM) | GI50 (Malme-3M) | GI50 (SK-OV-3) | GI50 (NCI-H226) | GI50 (SNB-75) | GI50 (HCC 2998) | GI50 (SN12C) | GI50 (786-0) | GI50 (SK-MEL-28) | GI50 (UACC-257) | GI50 (SNB-19) | GI50 (HOP-92) | GI50 (IGROV-1) | GI50 (RPMI-8226) |
| --- | --- | --- | --- | --- | --- | --- | --- | --- | --- | --- | --- | --- | --- | --- | --- | --- | --- | --- |
| CC(C)(C)C1(O)Cc2ccccc2C(=O)O1 (centres undefined) | > 100 µM (inactive) | > 100 µM (inactive) | > 100 µM (inactive) | > 100 µM (inactive) | > 100 µM (inactive) | > 100 µM (inactive) | > 100 µM (inactive) | > 100 µM (inactive) | > 100 µM (inactive) | > 100 µM (inactive) | > 100 µM (inactive) | > 100 µM (inactive) | > 100 µM (inactive) | > 100 µM (inactive) | > 100 µM (inactive) | > 100 µM (inactive) | > 100 µM (inactive) | – |
| C(/C=C/N1CCCC1)=C\c1nc(N2CCCC2)c2ccccc2n1 | – | – | 12.5 µM (inactive) | 17.5 µM (inactive) | 13.2 µM (inactive) | 18.3 µM (inactive) | 18.6 µM (inactive) | 16.7 µM (inactive) | 16.6 µM (inactive) | 17.4 µM (inactive) | 13.5 µM (inactive) | 16.6 µM (inactive) | 22.9 µM (inactive) | 33.2 µM (inactive) | 18.5 µM (inactive) | – | 21.6 µM (inactive) | 17.4 µM (inactive) |
| CC(C)(C)OC(=O)Cc1ccc2c(ccn2Cc2ccccc2)c1 | 44.2 µM (inactive) | 19.8 µM (inactive) | > 100 µM (inactive) | 47.4 µM (inactive) | > 100 µM (inactive) | > 100 µM (inactive) | > 100 µM (inactive) | 35.7 µM (inactive) | > 100 µM (inactive) | > 100 µM (inactive) | 52.1 µM (inactive) | 73.8 µM (inactive) | > 100 µM (inactive) | 39.9 µM (inactive) | > 100 µM (inactive) | 79.3 µM (inactive) | > 100 µM (inactive) | – |
| Cn1c2c(c3ccccc31)CCN(CCCCN1CCN(c3cccc(Cl)c3)CC1)C2=O | 12.3 µM (inactive) | 11.6 µM (inactive) | 4.45 µM (inactive) | – | 9.86 µM (inactive) | > 10 µM (inactive) | 16.3 µM (inactive) | – | 0.0975 µM (active) | – | 12.8 µM (inactive) | 13 µM (inactive) | 6.07 µM (inactive) | 7.03 µM (inactive) | 17.7 µM (inactive) | 15.2 µM (inactive) | 15.9 µM (inactive) | 5.66 µM (inactive) |
| COc1ccc(C2(Cl)C(Cl)(C(F)(F)F)C2(Cl)C(F)(F)F)cc1 (centres undefined) | – | 14.9 µM (inactive) | 20.5 µM (inactive) | 6.68 µM (inactive) | 3.78 µM (inactive) | – | 16.7 µM (inactive) | 15.5 µM (inactive) | 14.9 µM (inactive) | 16.3 µM (inactive) | 15.8 µM (inactive) | 17.2 µM (inactive) | 15.6 µM (inactive) | 13.6 µM (inactive) | 15.7 µM (inactive) | 13.9 µM (inactive) | 16.5 µM (inactive) | 9.64 µM (inactive) |
| CCOc1ccc(/N=N/c2ccc3oc(=O)c(C(=O)Nc4ccc(OC)cc4)cc3c2)cc1 | 21.8 µM (inactive) | 14.1 µM (inactive) | 8.38 µM (inactive) | 11.4 µM (inactive) | 2.36 µM (inactive) | 30.1 µM (inactive) | 41.9 µM (inactive) | – | 33.7 µM (inactive) | 10.8 µM (inactive) | 18 µM (inactive) | 21.9 µM (inactive) | 18.9 µM (inactive) | 27.9 µM (inactive) | 14 µM (inactive) | – | 23.5 µM (inactive) | 11.1 µM (inactive) |
| CC(C)=C1CCC(CN(C)C)C1=O (centres undefined) | 0.196 µM (active) | > 100 µM (inactive) | 6.08 µM (inactive) | – | 8.95 µM (inactive) | 16.3 µM (inactive) | – | – | 0.234 µM (active) | 19.1 µM (inactive) | 18.4 µM (inactive) | 12.6 µM (inactive) | 18.2 µM (inactive) | 17.5 µM (inactive) | > 100 µM (inactive) | 20.9 µM (inactive) | > 100 µM (inactive) | – |
| C=C(C)C1CC[C@]2(C(=O)O)CCC3(C)[C@H](CCC4[C@@]5(C)CC[C@H](OC6OC(CO)C(O)C6OC6OC(C)C(O)C(O)C6O)[C@@](C)(CO)C5CC[C@]43C)C12 (some centres undefined) | 88.1 µM (inactive) | > 100 µM (inactive) | > 100 µM (inactive) | > 100 µM (inactive) | > 100 µM (inactive) | – | – | > 100 µM (inactive) | > 100 µM (inactive) | > 100 µM (inactive) | > 100 µM (inactive) | > 100 µM (inactive) | > 100 µM (inactive) | – | > 100 µM (inactive) | – | > 100 µM (inactive) | – |
| COC(=O)C1C=NNC1C(=O)OC (centres undefined) | > 100 µM (inactive) | > 100 µM (inactive) | > 100 µM (inactive) | > 100 µM (inactive) | > 100 µM (inactive) | > 100 µM (inactive) | > 100 µM (inactive) | > 100 µM (inactive) | > 100 µM (inactive) | > 100 µM (inactive) | > 100 µM (inactive) | > 100 µM (inactive) | – | > 100 µM (inactive) | 57.3 µM (inactive) | – | > 100 µM (inactive) | > 100 µM (inactive) |
